From ChEMBL document CHEMBL4028852, “Design of a Chemical Probe for the Bromodomain and Plant Homeodomain Finger-Containing (BRPF) Family of Proteins” (J Med Chem, 2017)

Columns and labels:
Nav1.5 = Nav1.5 (Homo sapiens, UniProt Q14524); experiment: Inhibition of Nav1.5 (unknown origin) at 30 uM
KCNQ1/minK = KCNQ1/minK (Homo sapiens, UniProt P51787+Q8N4C8); experiment: Inhibition of KCNQ1/minK (unknown origin) at 30 uM; format: protein-complex assay
[1] = Inhibition of cell proliferation of human HRA19 cells after 72 hrs by MTS assay; format: functional; conditions: HRA19, 72 h
[2] = Oral bioavailability in CD1 mouse at 3 mg/kg by UPLC-MS/MS analysis; format: ADME, organism-based; conditions: in vivo
NCI-H1703 = experiment: Inhibition of cell proliferation of human NCI-H1703 cells after 72 hrs by MTS assay; format: functional; conditions: NCI-H1703, 72 h
[3] = biological target: T1, ATPase family AAA domain-containing protein 2B (Homo sapiens, UniProt Q9ULI0); experiment: Inhibition of human ATAD2B (955 to 1082 residues) expressed in Escherichia coli BL21 after 1 hr by BROMOscan assay
T1 sequence (Q9ULI0 whole entry): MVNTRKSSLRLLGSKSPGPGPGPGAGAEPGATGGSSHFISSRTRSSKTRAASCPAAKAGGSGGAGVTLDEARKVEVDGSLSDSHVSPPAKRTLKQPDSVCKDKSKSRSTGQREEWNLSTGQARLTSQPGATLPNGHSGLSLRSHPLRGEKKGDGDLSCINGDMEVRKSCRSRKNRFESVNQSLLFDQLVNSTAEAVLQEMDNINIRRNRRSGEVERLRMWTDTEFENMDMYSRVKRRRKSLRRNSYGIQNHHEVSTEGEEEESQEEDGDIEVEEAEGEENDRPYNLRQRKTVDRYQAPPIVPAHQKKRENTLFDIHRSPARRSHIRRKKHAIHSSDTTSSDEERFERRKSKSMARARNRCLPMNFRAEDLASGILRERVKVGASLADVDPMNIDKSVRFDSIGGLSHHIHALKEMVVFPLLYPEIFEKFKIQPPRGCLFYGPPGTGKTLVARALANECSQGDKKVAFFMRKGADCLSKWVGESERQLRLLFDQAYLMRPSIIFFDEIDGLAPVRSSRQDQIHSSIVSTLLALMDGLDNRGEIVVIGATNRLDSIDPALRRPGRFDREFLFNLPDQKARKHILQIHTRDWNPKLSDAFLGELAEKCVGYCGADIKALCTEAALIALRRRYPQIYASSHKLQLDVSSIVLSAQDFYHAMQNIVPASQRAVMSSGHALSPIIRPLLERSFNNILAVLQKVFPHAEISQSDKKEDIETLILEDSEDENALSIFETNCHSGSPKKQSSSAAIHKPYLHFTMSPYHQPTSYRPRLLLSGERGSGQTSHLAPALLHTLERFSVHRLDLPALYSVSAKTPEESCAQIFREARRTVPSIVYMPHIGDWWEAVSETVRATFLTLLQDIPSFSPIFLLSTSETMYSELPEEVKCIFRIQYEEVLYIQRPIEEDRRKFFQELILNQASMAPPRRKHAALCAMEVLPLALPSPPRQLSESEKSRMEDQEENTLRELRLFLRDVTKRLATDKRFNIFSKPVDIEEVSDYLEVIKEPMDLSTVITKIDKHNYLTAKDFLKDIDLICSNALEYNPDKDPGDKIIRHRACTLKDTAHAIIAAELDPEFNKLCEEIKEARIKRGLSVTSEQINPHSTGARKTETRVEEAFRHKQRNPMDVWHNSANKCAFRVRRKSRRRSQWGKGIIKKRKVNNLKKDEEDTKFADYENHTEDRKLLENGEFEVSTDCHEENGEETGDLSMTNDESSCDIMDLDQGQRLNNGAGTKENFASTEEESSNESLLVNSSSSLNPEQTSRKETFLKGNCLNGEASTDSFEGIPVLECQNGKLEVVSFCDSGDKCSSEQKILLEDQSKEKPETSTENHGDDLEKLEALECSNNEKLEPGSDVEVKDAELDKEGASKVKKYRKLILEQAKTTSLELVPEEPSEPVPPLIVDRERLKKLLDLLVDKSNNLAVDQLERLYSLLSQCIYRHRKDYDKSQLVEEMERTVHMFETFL

[4] = Elimination half life in CD1 mouse at 1 mg/kg, iv by UPLC-MS/MS analysis; format: ADME, organism-based; conditions: in vivo, read-out: beta t1/2 (converted)
Cav1.2 = Cav1.2 (Homo sapiens, UniProt Q13936); experiment: Inhibition of Cav1.2 (unknown origin) at 30 uM
Chain of Cav1.2 (Q13936 whole entry): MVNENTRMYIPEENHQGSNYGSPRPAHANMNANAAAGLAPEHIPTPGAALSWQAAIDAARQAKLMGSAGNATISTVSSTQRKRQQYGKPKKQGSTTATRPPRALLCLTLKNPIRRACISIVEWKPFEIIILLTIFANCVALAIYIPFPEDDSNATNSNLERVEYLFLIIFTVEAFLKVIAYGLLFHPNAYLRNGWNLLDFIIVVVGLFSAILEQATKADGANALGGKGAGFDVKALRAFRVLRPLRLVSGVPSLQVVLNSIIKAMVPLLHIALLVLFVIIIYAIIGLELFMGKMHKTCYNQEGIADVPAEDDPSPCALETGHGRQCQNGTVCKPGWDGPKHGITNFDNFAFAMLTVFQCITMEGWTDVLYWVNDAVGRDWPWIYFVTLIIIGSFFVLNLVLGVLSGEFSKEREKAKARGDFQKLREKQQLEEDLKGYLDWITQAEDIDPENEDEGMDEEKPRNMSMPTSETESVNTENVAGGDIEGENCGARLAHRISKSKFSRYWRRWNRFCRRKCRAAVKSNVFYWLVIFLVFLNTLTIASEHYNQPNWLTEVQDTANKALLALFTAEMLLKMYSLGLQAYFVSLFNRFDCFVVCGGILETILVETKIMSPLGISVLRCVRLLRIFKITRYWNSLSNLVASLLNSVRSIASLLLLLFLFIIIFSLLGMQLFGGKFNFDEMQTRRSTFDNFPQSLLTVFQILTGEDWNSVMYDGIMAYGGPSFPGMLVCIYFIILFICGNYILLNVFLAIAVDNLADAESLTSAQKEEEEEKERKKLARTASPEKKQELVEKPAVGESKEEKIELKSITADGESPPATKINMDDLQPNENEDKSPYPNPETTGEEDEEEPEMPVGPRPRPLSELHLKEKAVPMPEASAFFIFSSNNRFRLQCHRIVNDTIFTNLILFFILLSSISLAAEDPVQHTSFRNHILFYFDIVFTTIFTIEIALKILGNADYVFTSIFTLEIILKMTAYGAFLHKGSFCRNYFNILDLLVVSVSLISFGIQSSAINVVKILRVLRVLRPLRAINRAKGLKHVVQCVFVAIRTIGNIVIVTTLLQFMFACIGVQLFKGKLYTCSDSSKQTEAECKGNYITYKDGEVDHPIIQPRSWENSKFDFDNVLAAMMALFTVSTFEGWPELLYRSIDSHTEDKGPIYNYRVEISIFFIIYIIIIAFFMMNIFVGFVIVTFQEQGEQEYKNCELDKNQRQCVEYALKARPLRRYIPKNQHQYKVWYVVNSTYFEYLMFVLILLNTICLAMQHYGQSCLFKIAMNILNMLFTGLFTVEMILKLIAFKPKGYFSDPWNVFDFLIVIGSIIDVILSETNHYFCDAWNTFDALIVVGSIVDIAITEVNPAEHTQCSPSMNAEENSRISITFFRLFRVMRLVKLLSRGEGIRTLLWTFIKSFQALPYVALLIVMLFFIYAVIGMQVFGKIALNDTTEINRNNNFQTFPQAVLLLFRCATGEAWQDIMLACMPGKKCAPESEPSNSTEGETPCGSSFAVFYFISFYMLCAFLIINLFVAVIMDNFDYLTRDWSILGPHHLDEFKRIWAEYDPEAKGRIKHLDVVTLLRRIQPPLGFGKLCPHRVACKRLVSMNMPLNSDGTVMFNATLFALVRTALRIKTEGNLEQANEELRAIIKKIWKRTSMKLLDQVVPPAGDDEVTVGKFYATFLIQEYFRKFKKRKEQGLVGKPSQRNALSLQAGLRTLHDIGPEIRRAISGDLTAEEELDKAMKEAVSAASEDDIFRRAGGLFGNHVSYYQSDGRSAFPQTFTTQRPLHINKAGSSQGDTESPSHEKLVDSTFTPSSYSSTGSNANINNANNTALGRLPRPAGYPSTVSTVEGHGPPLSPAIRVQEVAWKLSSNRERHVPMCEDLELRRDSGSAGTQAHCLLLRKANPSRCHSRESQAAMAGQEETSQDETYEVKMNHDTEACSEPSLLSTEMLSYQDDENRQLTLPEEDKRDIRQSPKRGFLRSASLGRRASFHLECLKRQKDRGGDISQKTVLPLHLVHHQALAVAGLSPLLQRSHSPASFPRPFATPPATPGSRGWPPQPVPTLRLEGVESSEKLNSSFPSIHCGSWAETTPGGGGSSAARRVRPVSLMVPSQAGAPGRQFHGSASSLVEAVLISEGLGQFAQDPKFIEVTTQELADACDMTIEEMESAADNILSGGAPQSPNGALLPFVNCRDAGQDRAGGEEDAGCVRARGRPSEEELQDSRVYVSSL

Chain of Nav1.5 (Q14524 whole entry): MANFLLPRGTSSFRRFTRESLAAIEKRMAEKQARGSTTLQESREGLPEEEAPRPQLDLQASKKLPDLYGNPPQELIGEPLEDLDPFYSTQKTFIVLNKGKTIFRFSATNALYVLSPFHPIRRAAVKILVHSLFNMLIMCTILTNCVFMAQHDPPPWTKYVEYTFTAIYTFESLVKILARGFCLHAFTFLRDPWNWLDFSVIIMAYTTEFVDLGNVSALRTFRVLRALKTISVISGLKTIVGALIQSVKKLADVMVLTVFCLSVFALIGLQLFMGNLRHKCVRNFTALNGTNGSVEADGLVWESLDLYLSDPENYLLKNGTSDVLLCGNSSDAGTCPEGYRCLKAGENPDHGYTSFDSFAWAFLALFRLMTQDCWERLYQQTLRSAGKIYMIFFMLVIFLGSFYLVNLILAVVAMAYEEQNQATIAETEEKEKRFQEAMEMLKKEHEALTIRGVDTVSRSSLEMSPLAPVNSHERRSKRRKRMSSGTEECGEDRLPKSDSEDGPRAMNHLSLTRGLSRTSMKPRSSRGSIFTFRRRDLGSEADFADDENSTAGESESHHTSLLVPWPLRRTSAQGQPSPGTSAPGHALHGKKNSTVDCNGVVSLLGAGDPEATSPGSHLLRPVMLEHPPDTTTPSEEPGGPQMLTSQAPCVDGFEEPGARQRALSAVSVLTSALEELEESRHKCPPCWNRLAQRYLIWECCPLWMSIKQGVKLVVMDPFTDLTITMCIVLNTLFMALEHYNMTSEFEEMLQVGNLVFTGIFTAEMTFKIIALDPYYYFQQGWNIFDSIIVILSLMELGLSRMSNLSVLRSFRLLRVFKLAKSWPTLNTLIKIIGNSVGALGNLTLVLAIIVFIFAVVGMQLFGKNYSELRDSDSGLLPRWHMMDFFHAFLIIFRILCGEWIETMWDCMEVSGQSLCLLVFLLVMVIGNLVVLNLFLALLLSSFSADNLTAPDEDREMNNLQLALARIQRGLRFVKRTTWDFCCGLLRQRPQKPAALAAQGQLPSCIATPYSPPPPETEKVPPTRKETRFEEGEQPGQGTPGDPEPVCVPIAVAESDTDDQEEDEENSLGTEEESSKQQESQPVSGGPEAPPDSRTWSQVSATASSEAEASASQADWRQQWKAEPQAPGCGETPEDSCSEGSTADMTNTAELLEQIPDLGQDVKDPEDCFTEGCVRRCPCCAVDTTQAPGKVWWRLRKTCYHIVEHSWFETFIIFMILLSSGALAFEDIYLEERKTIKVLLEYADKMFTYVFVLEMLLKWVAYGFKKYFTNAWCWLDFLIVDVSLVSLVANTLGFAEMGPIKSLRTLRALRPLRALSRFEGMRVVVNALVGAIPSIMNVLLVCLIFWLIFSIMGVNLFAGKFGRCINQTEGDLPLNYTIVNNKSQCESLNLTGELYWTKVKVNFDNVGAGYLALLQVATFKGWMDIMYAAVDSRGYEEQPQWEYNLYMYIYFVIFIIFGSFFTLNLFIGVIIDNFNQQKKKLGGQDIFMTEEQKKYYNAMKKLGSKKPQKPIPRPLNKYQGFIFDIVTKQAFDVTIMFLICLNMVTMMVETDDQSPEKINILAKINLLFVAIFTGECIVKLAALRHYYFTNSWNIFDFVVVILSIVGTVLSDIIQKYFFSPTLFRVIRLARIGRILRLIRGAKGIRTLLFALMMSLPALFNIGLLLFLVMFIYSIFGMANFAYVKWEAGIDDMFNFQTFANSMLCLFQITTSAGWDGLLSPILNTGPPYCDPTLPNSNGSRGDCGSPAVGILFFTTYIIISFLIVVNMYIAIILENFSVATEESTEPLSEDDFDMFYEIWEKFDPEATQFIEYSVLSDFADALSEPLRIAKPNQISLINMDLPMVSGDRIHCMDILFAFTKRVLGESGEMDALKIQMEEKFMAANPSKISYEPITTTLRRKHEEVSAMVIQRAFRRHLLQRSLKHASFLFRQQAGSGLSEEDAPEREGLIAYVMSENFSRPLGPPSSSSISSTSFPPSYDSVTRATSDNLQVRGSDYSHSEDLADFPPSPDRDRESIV

In the case of COc1cc(C#N)ccc1S(=O)(=O)Nc1ccc2c(c1)cc(C)c(=O)n2C, the inhibition at 30 µM (Nav1.5) is reported as less than 40%, the inhibition at 30 µM (KCNQ1/minK) is reported as less than 40% and the GI50 [1] is reported as 15.6 µM. For the same molecule, the bioavailability [2] was 29%, the GI50 (NCI-H1703) was 10.4 µM and the IC50 [3] was greater than 100 µM. It also gave a half-life [4] of 1.2 h and an inhibition at 30 µM (Cav1.2) of less than 40%.
